Source: patent US11702401B2, “Compounds and methods of use” (Medivation Technologies LLC, priority 2014, dated 2023)

Assays:
[1] = Plasma and brain concentrations in male mice at 0.5 and 1 h; assay type: in vivo
[2] = Pharmacokinetics and bioavailability in male mice, oral single dose; assay type: in vivo; settings: oral 10 mg/kg

Row | Compound | Brain Concentration ([1]; IV, 0.5 h) [nM] | Plasma Concentration ([1]; IV, 0.5 h) [nM] | Brain Concentration ([1]; IV, 1 h) [nM] | Plasma Concentration ([1]; IV, 1 h) [nM] | Brain Concentration ([1]; PO, 0.5 h) [nM] | Plasma Concentration ([1]; PO, 0.5 h) [nM] | Brain Concentration ([1]; PO, 1 h) [nM] | Plasma Concentration ([1]; PO, 1 h) [nM] | AUClast [2] [µM·h] | Tmax [2] [min]
1 | C[C@H](O)CNC(=O)c1cnccc1Nc1cc(-c2cc(Cl)ccc2F)ncc1N(C)C (single isomer, unassigned) [16a] | 48 | 3040 | 19 | 1230 | 48 | 3420 | 25 | 1690 | 7.50 | 30
2 | CC(C)c1cnc(-c2cc(Cl)ccc2F)cc1Nc1ccncc1C(=O)NC(CO)CO [compound 22, 4-[[2-(5-chloro-2-fluoro-phenyl)-5-isopropyl-4-pyridyl]amino]-N-[2-hydroxy-1-(hydroxymethyl)ethyl]pyridine-3-carboxamide] | 7 | 1690 | 5 | 967 | 20 | 7070 | 15 | 3530 | – | –
